The values below come from patent US10130633B2, “Compounds” (BAYER PHARMA AKTIENGESELLSCHAFT, priority 2013, dated 2018).

Bounds are passed on as bounds.

For experiment [1], the system named is HCT116 FOP control reporter cell line. Put plainly: HCT116 FOPFlash control reporter assay (FOP control vector, non-functional TCF elements). Format: cell-based. The following applies: Homo sapiens, HCT-116, 36 h, HCT116 FOP control reporter cells, 36 hours incubation, luciferase expression. An excerpt:
In a parallel approach, HCT116 cells were cotransfected with the FOP control vector and pcDNA3. The FOP vector is identical to the TOP construct, but it contains instead of functional TCF elements a randomized, non-functional sequence. For this transfection a stable transfected cell line was generated as well.

The subject of experiment [2] is constitutive active colorectal cancer cell (CRC) Wnt pathway. The experiment in a line: HCT116 TOPFlash cellular reporter assay (Super TopFlash luciferase), constitutive active Wnt pathway. Format: cell-based. The conditions noted are these: Homo sapiens, HCT-116, 36 h, HCT116 TOP reporter cells, 36 hours incubation, luciferase expression. The protocol: In order to discover and characterize small molecules which inhibit the constitutive active colorectal cancer cell (CRC) Wnt pathway, a cellular reporter assay was employed. […] Stable transfectants were generated by cotransfection with pcDNA3 and selection of stable transfected cells with 1 mg/ml G418.

As for `O=C(Nc1nnc(-c2ccccc2F)s1)c1ccc(OC(F)(F)F)c(NC(=O)C2(N3CCOCC3)CC2)c1` [Example 89, N-[5-(2-fluorophenyl)-1,3,4-thiadiazol-2-yl]-3-({[1-(morpholin-4-yl)cyclopropyl]carbonyl}amino)-4-(trifluoromethoxy)benzamide], the results for the IC50 in experiment [1] and in experiment [2] were 44000 nM and 216 nM, respectively.

As to `O=C(Nc1nnc(-c2ccc(F)cc2)s1)c1ccc(OC(F)(F)F)c(NC(=O)C2(N3CCOCC3)CC2)c1` [Example 90, N-[5-(4-fluorophenyl)-1,3,4-thiadiazol-2-yl]-3-({[1-(morpholin-4-yl)cyclopropyl]carbonyl}amino)-4-(trifluoromethoxy)benzamide], the IC50 is at least 50000 nM in experiment [1] and 173 nM in experiment [2].

Take `COc1ccc(C(=O)Nc2nnc(-c3ccccc3)s2)cc1NC(=O)CN1CCN(C)CC1` [Example 91, 4-methoxy-3-{[(4-methylpiperazin-1-yl)acetyl]amino}-N-(5-phenyl-1,3,4-thiadiazol-2-yl)benzamide]: the results for the IC50 in experiment [1] and in experiment [2] were 44000 nM and 650 nM, respectively.

With `O=C(Nc1nnc(-c2ccccc2)s1)c1ccc(OCc2ccccc2)c(NC(=O)C2(N3CCOCC3)CC2)c1` [Example 92, 4-(benzyloxy)-3-({[1-(morpholin-4-yl)cyclopropyl]carbonyl}amino)-N-(5-phenyl-1,3,4-thiadiazol-2-yl)benzamide], the IC50 was at least 50000 nM in experiment [1] and 360 nM in experiment [2].

As to `O=C(Nc1nnc(-c2ccccc2)s1)c1ccc(O)c(NC(=O)C2(N3CCOCC3)CC2)c1` [Example 93, 4-hydroxy-3-({[1-(morpholin-4-yl)cyclopropyl]carbonyl}amino)-N-(5-phenyl-1,3,4-thiadiazol-2-yl)benzamide], the IC50 was at least 50000 nM in experiment [1] and 240 nM in experiment [2].

On to `CN1CCN(CC(=O)Nc2cc(C(=O)Nc3nnc(-c4ccccc4)s3)ccc2Br)CC1` [Example 94, 4-bromo-3-{[(4-methylpiperazin-1-yl)acetyl]amino}-N-(5-phenyl-1,3,4-thiadiazol-2-yl)benzamide], for which the IC50 in experiment [1] was at least 50000 nM; in experiment [2], 433 nM.

For `Cc1cccc(-c2nnc(NC(=O)c3ccc(OC(F)(F)F)c(NC(=O)CN4CCOCC4)c3)s2)c1` [Example 96, N-[5-(3-methylphenyl)-1,3,4-thiadiazol-2-yl]-3-[(morpholin-4-ylacetyl)amino]-4-(trifluoromethoxy)benzamide], the values for the IC50 in experiment [1] and in experiment [2] were at least 50000 nM and 855 nM, respectively.

As to `O=C(CN1CCOCC1)Nc1cc(C(=O)Nc2nnc(-c3ccc([N+](=O)[O-])cc3)s2)ccc1OC(F)(F)F` [Example 97, 3-[(morpholin-4-ylacetyl)amino]-N-[5-(4-nitrophenyl)-1,3,4-thiadiazol-2-yl]-4-(trifluoromethoxy)benzamide], the IC50 in experiment [1] was at least 50000 nM; in experiment [2], 1930 nM.

Consider `Cc1ccccc1-c1nnc(NC(=O)c2ccc(OC(F)(F)F)c(NC(=O)CN3CCOCC3)c2)s1` [Example 98, N-[5-(2-methylphenyl)-1,3,4-thiadiazol-2-yl]-3-[(morpholin-4-ylacetyl)amino]-4-(trifluoromethoxy)benzamide], for which the half-inhibitory concentration (IC50) turned out to be 26400 nM in experiment [1] and 87 nM in experiment [2].

For the molecule `O=C(CN1CCOCC1)Nc1cc(C(=O)Nc2nnc(-c3ccc(F)cc3)s2)ccc1OC(F)(F)F` [Example 99, N-[5-(4-fluorophenyl)-1,3,4-thiadiazol-2-yl]-3-[(morpholin-4-ylacetyl)amino]-4-(trifluoromethoxy)benzamide], the IC50 in experiment [1] is 9300 nM; in experiment [2], 935 nM.

As for `O=C(CN1CCN(CC(F)F)CC1)Nc1cc(C(=O)Nc2ccc(-c3ccccc3F)nc2)ccc1OC(F)(F)F` [Example 100, 3-({[4-(2,2-difluoroethyl)piperazin-1-yl]acetyl}amino)-N-[6-(2-fluorophenyl)pyridin-3-yl]-4-(trifluoromethoxy)benzamide], the figures for the IC50 in experiment [1] and in experiment [2] were at least 50000 nM and 858 nM, respectively.

On to `COc1ccccc1-c1nnc(NC(=O)c2ccc(OC(F)(F)F)c(NC(=O)CN3CCN(C)CC3)c2)s1` [Example 101, N-[5-(2-methoxyphenyl)-1,3,4-thiadiazol-2-yl]-3-{[(4-methylpiperazin-1-yl)acetyl]amino}-4-(trifluoromethoxy)benzamide], for which the results for the IC50 in experiment [1] and in experiment [2] were at least 50000 nM and 3200 nM, respectively.

In the case of `Cc1ccc(-c2nnc(NC(=O)c3ccc(OC(F)(F)F)c(NC(=O)CN4CCN(C)CC4)c3)s2)cc1` [Example 102, N-[5-(4-methylphenyl)-1,3,4-thiadiazol-2-yl]-3-{[(4-methylpiperazin-1-yl)acetyl]amino}-4-(trifluoromethoxy)benzamide], the IC50 was 19500 nM in experiment [1] and 458 nM in experiment [2].

As to `Cc1ccc(C(=O)Nc2nnc(-c3ccccc3)s2)cc1NC(=O)C1(N2CCOCC2)CC1` [Example 103, 4-methyl-3-({[1-(morpholin-4-yl)cyclopropyl]carbonyl}amino)-N-(5-phenyl-1,3,4-thiadiazol-2-yl)benzamide], the IC50 amounted to 21000 nM in experiment [1] and 752 nM in experiment [2].

As for `CN1CCN(CC(=O)Nc2cc(C(=O)Nc3nnc(-c4ccccc4)s3)ccc2CS(C)(=O)=O)CC1` [Example 104, 3-{[(4-methylpiperazin-1-yl)acetyl]amino}-4-[(methylsulfonyl)methyl]-N-(5-phenyl-1,3,4-thiadiazol-2-yl)benzamide], the IC50 in experiment [1] was at least 50000 nM; in experiment [2], 2030 nM.

As to `COC(=O)c1ccc(C(=O)Nc2nnc(-c3ccccc3)s2)cc1NC(=O)CN1CCOCC1` [Example 106, methyl 2-[(morpholin-4-ylacetyl)amino]-4-[(5-phenyl-1,3,4-thiadiazol-2-yl)carbamoyl]benzoate], the IC50 is at least 50000 nM in experiment [1] and 285 nM in experiment [2].

Turning to `COc1ccc(NC(=O)c2cnc(-c3ccccc3)s2)cc1NC(=O)C(C)N1CCOCC1` (stereo not drawn) [Example 107, N-(4-methoxy-3-{[2-(morpholin-4-yl)propanoyl]amino}phenyl)-2-phenyl-1,3-thiazole-5-carboxamide], the IC50 is at least 50000 nM in experiment [1] and 209 nM in experiment [2].

Consider `O=C(Nc1ccc(OC(F)(F)F)c(NC(=O)C2(N3CCOCC3)CC2)c1)c1cnc(-c2ccccc2)s1` [Example 108, N-[3-({[1-(morpholin-4-yl)cyclopropyl]carbonyl}amino)-4-(trifluoromethoxy)phenyl]-2-phenyl-1,3-thiazole-5-carboxamide], for which the IC50 in experiment [1] was at least 50000 nM; in experiment [2], 463 nM.

Take `CC(C(=O)Nc1cc(C(=O)Nc2ccc(-c3ccc(O)cc3F)nc2)ccc1OC(F)(F)F)N1CCOCC1` (stereo not drawn) [Example 109, N-[6-(2-fluoro-4-hydroxyphenyl)pyridin-3-yl]-3-{[2-(morpholin-4-yl)propanoyl]amino}-4-(trifluoromethoxy)benzamide]: the IC50 in experiment [1] was 29900 nM; in experiment [2], 208 nM.

Take `CC(C(=O)Nc1cc(C(=O)Nc2ccc(-c3ccc(O)c(F)c3)nc2)ccc1OC(F)(F)F)N1CCOCC1` (stereo not drawn) [Example 110, N-[6-(3-fluoro-4-hydroxyphenyl)pyridin-3-yl]-3-{[2-(morpholin-4-yl)propanoyl]amino}-4-(trifluoromethoxy)benzamide]: the IC50 in experiment [1] amounted to 42000 nM; in experiment [2] it was 450 nM.

`CC(C(=O)Nc1cc(C(=O)Nc2ccc(-c3ccc(C(F)F)cc3)nc2)ccc1OC(F)(F)F)N1CCOCC1` (stereo not drawn) [Example 112, N-{6-[4-(difluoromethyl)phenyl]pyridin-3-yl}-3-{[2-(morpholin-4-yl)propanoyl]amino}-4-(trifluoromethoxy)benzamide]: the IC50 in experiment [1] was at least 50000 nM; in experiment [2], 270 nM.

In the case of `CC(C(=O)Nc1cc(C(=O)Nc2ccc(-c3ccc(N(C)C)cc3)nc2)ccc1OC(F)(F)F)N1CCOCC1` (stereo not drawn) [Example 114, N-{6-[4-(dimethylamino)phenyl]pyridin-3-yl}-3-{[2-(morpholin-4-yl)propanoyl]amino}-4-(trifluoromethoxy)benzamide], the IC50 was at least 50000 nM in experiment [1] and 46 nM in experiment [2].

In the case of `O=C(CN1CCOCC1)Nc1cc(NC(=O)c2noc(-c3ccccc3)n2)ccc1OC(F)(F)F` [Example 121, N-{3-[(morpholin-4-ylacetyl)amino]-4-(trifluoromethoxy)phenyl}-5-phenyl-1,2,4-oxadiazole-3-carboxamide], the IC50 in experiment [1] was at least 50000 nM; in experiment [2], 825 nM.

Turning to `O=C(CN1CCOCC1)Nc1cc(C(=O)Nc2cnc(-c3ccccc3)s2)ccc1OC(F)(F)F` [Example 122, 3-[(morpholin-4-ylacetyl)amino]-N-(2-phenyl-1,3-thiazol-5-yl)-4-(trifluoromethoxy)benzamide], the IC50 was at least 50000 nM in experiment [1] and 202 nM in experiment [2].

As for `Cn1nc(C(=O)Nc2ccc(OC(F)(F)F)c(NC(=O)CN3CCOCC3)c2)cc1-c1ccccc1` [Example 123, 1-methyl-N-{3-[(morpholin-4-ylacetyl)amino]-4-(trifluoromethoxy)phenyl}-5-phenyl-1H-pyrazole-3-carboxamide], the IC50 in experiment [1] is at least 50000 nM; in experiment [2], 560 nM.

With `O=C(CN1CCOCC1)Nc1cc(C(=O)Nc2nc(-c3ccccc3)no2)ccc1OC(F)(F)F` [Example 125, 3-[(morpholin-4-ylacetyl)amino]-N-(3-phenyl-1,2,4-oxadiazol-5-yl)-4-(trifluoromethoxy)benzamide], the results for the IC50 in experiment [1] and in experiment [2] were at least 50000 nM and 1700 nM, respectively.

Consider `O=C(CN1CCOCC1)Nc1cc(C(=O)Nc2nnc(-c3ccccc3F)s2)ccc1OC(F)(F)F` [Example 127, N-[5-(2-fluorophenyl)-1,3,4-thiadiazol-2-yl]-3-[(morpholin-4-ylacetyl)amino]-4-(trifluoromethoxy)benzamide], for which the figures for the IC50 in experiment [1] and in experiment [2] were at least 50000 nM and 885 nM, respectively.
